Earlier results as cited in patent US20190008906A1, “COMPOSITIONS FOR MANAGEMENT OF WOUNDS, SKIN DISEASES, DEHYDRATION, CHRONIC DISEASES, AND RESPIRATORY DISEASES” (priority 2017, published 2019).

Settings: laboratory animals, mainly when given orally

Which “safety in toxicity studies” value does the source give for `CC1=CC(=O)C(C(C)C)=CC1=O` [thymoquinone] here?
Its value is “quite safe”.
